These compounds were tested on Echinochloa crus-galli (assay: Post emergence herbicidal activity against Echinochloa crus-galli (barnyard grass) seedlings assessed as plant growth inhibition at 150 g ai/ha measured 15 days after compound treatment under greenhouse conditions). Details: 360 h, read-out: GI.
Type: functional

Compound | inhibition of growth at 150 g/ha
CCCSc1nc2cc(-n3nc(C)n(C(F)F)c3=O)c(F)cc2s1 | 60%
CCOC(=O)C(C)Sc1nc2cc(-n3nc(C)n(C(F)F)c3=O)c(Cl)cc2s1 (configuration not stated) | 80%
CCOC(=O)Sc1nc2cc(-n3nc(C)n(C(F)F)c3=O)c(Cl)cc2s1 | < 50%
CCCCSc1nc2cc(-n3nc(C)n(C(F)F)c3=O)c(Cl)cc2s1 | < 50%
C=CCSc1nc2cc(-n3nc(C)n(C(F)F)c3=O)c(Cl)cc2s1 | 60%
CCOC(=O)CSc1nc2cc(-n3nc(C)n(C(F)F)c3=O)c(Cl)cc2s1 | ≥ 90%
CSc1nc2cc(-n3nc(C)n(C(F)F)c3=O)c(Cl)cc2s1 | < 50%
CCCSc1nc2cc(-n3nc(C)n(C(F)F)c3=O)c(Cl)cc2s1 | < 50%
C=CCSc1nc2cc(-n3nc(C)n(C(F)F)c3=O)c(F)cc2s1 | 80%

What follows are compounds tested on Amaranthus retroflexus (assay: Post emergence herbicidal activity against Amaranthus retroflexus seedlings assessed as plant growth inhibition at 150 g ai/ha measured 15 days after compound treatment under greenhouse conditions). Details: 360 h, read-out: GI.
Type: functional

Compound | inhibition of growth at 150 g/ha
CCCSc1nc2cc(-n3nc(C)n(C(F)F)c3=O)c(F)cc2s1 | 60%
CCOC(=O)C(C)Sc1nc2cc(-n3nc(C)n(C(F)F)c3=O)c(Cl)cc2s1 (configuration not stated) | ≥ 90%
CCOC(=O)Sc1nc2cc(-n3nc(C)n(C(F)F)c3=O)c(Cl)cc2s1 | < 50%
CCCCSc1nc2cc(-n3nc(C)n(C(F)F)c3=O)c(Cl)cc2s1 | < 50%
C=CCSc1nc2cc(-n3nc(C)n(C(F)F)c3=O)c(Cl)cc2s1 | 60%
CCOC(=O)CSc1nc2cc(-n3nc(C)n(C(F)F)c3=O)c(Cl)cc2s1 | 80%
CSc1nc2cc(-n3nc(C)n(C(F)F)c3=O)c(Cl)cc2s1 | 50%
CCCSc1nc2cc(-n3nc(C)n(C(F)F)c3=O)c(Cl)cc2s1 | 60%
C=CCSc1nc2cc(-n3nc(C)n(C(F)F)c3=O)c(F)cc2s1 | 50%

These compounds were tested on Chenopodium album (assay: Post-emergence herbicidal activity against Chenopodium album seedlings assessed as plant growth inhibition at 150 g ai/ha measured 15 days after compound treatment under greenhouse conditions). Details: 360 h, read-out: GI.
Type: functional

Compound | inhibition of growth at 150 g/ha
CCCSc1nc2cc(-n3nc(C)n(C(F)F)c3=O)c(F)cc2s1 | < 50%
CCOC(=O)C(C)Sc1nc2cc(-n3nc(C)n(C(F)F)c3=O)c(Cl)cc2s1 (configuration not stated) | 60%
CCOC(=O)Sc1nc2cc(-n3nc(C)n(C(F)F)c3=O)c(Cl)cc2s1 | < 50%
CCCCSc1nc2cc(-n3nc(C)n(C(F)F)c3=O)c(Cl)cc2s1 | < 50%
C=CCSc1nc2cc(-n3nc(C)n(C(F)F)c3=O)c(Cl)cc2s1 | < 50%
CCOC(=O)CSc1nc2cc(-n3nc(C)n(C(F)F)c3=O)c(Cl)cc2s1 | < 50%
CSc1nc2cc(-n3nc(C)n(C(F)F)c3=O)c(Cl)cc2s1 | 50%
CCCSc1nc2cc(-n3nc(C)n(C(F)F)c3=O)c(Cl)cc2s1 | 50%
C=CCSc1nc2cc(-n3nc(C)n(C(F)F)c3=O)c(F)cc2s1 | < 50%

Each compound was assayed against T1, Protoporphyrinogen oxidase, chloroplastic (Nicotiana tabacum, UniProt O24163) (assay: Inhibition of Nicotiana tabacum (tobacco) recombinant PPO assessed as protoporphyrin IX formation at room temperature by fluorimetric assay). Details: not given.
T1 sequence (O24163 whole entry): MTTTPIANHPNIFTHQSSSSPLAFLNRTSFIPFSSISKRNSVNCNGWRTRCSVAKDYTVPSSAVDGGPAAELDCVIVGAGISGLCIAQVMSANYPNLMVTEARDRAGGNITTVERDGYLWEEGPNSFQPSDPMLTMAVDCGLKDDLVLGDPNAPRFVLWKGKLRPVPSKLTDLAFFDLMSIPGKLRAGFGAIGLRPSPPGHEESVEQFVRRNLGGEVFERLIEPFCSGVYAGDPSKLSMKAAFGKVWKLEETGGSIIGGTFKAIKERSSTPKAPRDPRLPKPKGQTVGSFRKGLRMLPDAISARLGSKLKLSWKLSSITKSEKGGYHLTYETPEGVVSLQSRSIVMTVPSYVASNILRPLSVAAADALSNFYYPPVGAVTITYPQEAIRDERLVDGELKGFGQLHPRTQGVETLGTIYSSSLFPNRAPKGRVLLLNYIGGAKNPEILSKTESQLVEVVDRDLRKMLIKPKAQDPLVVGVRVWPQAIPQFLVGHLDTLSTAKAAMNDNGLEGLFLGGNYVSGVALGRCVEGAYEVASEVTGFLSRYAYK

Ki | Compound
300 nM | CCCSc1nc2cc(-n3nc(C)n(C(F)F)c3=O)c(F)cc2s1
3390 nM | CCOC(=O)C(C)Sc1nc2cc(-n3nc(C)n(C(F)F)c3=O)c(Cl)cc2s1 (configuration not stated)
1370 nM | CCOC(=O)CSc1nc2cc(-n3nc(C)n(C(F)F)c3=O)c(Cl)cc2s1
13900 nM | CSc1nc2cc(-n3nc(C)n(C(F)F)c3=O)c(Cl)cc2s1
200 nM | C=CCSc1nc2cc(-n3nc(C)n(C(F)F)c3=O)c(F)cc2s1

Compound | Ki
CCCCSc1nc2cc(-n3nc(C)n(C(F)F)c3=O)c(Cl)cc2s1 | 2970 nM
C=CCSc1nc2cc(-n3nc(C)n(C(F)F)c3=O)c(Cl)cc2s1 | 3130 nM
CCCSc1nc2cc(-n3nc(C)n(C(F)F)c3=O)c(Cl)cc2s1 | 2010 nM

The compounds below were run on Setaria faberi (assay: Post-emergence herbicidal activity against Setaria faberi (Giant Foxtail) seedlings assessed as plant growth inhibition at 150 g ai/ha measured 15 days after compound treatment under greenhouse conditions). Details: 360 h, read-out: GI.
Type: functional

Compound | inhibition of growth at 150 g/ha
CCCSc1nc2cc(-n3nc(C)n(C(F)F)c3=O)c(F)cc2s1 | 60%
CCOC(=O)C(C)Sc1nc2cc(-n3nc(C)n(C(F)F)c3=O)c(Cl)cc2s1 (configuration not stated) | 80%
CCOC(=O)Sc1nc2cc(-n3nc(C)n(C(F)F)c3=O)c(Cl)cc2s1 | < 50%
CCCCSc1nc2cc(-n3nc(C)n(C(F)F)c3=O)c(Cl)cc2s1 | < 50%
C=CCSc1nc2cc(-n3nc(C)n(C(F)F)c3=O)c(Cl)cc2s1 | 60%
CCOC(=O)CSc1nc2cc(-n3nc(C)n(C(F)F)c3=O)c(Cl)cc2s1 | 80%
CSc1nc2cc(-n3nc(C)n(C(F)F)c3=O)c(Cl)cc2s1 | < 50%
CCCSc1nc2cc(-n3nc(C)n(C(F)F)c3=O)c(Cl)cc2s1 | < 50%
C=CCSc1nc2cc(-n3nc(C)n(C(F)F)c3=O)c(F)cc2s1 | 60%

What follows are compounds tested on Digitaria sanguinalis (assay: Post-emergence herbicidal activity against Digitaria sanguinalis (hairy crabgrass) seedlings assessed as plant growth inhibition at 150 g ai/ha measured 15 days after compound treatment under greenhouse conditions). Details: 360 h, read-out: GI.
Type: functional

Compound | inhibition of growth at 150 g/ha
CCCSc1nc2cc(-n3nc(C)n(C(F)F)c3=O)c(F)cc2s1 | 80%
CCOC(=O)C(C)Sc1nc2cc(-n3nc(C)n(C(F)F)c3=O)c(Cl)cc2s1 (configuration not stated) | 80%
CCOC(=O)Sc1nc2cc(-n3nc(C)n(C(F)F)c3=O)c(Cl)cc2s1 | < 50%
CCCCSc1nc2cc(-n3nc(C)n(C(F)F)c3=O)c(Cl)cc2s1 | < 50%
C=CCSc1nc2cc(-n3nc(C)n(C(F)F)c3=O)c(Cl)cc2s1 | < 50%
CCOC(=O)CSc1nc2cc(-n3nc(C)n(C(F)F)c3=O)c(Cl)cc2s1 | ≥ 90%
CSc1nc2cc(-n3nc(C)n(C(F)F)c3=O)c(Cl)cc2s1 | 50%
CCCSc1nc2cc(-n3nc(C)n(C(F)F)c3=O)c(Cl)cc2s1 | < 50%
C=CCSc1nc2cc(-n3nc(C)n(C(F)F)c3=O)c(F)cc2s1 | 60%

These compounds were tested on Brassica juncea (assay: Post-emergence herbicidal activity against Brassica juncea seedlings assessed as plant growth inhibition at 150 g ai/ha measured 15 days after compound treatment under greenhouse conditions). Details: 360 h, read-out: GI.
Type: functional

Compound | inhibition of growth at 150 g/ha
CCCSc1nc2cc(-n3nc(C)n(C(F)F)c3=O)c(F)cc2s1 | 60%
CCOC(=O)C(C)Sc1nc2cc(-n3nc(C)n(C(F)F)c3=O)c(Cl)cc2s1 (configuration not stated) | ≥ 90%
CCOC(=O)Sc1nc2cc(-n3nc(C)n(C(F)F)c3=O)c(Cl)cc2s1 | < 50%
CCCCSc1nc2cc(-n3nc(C)n(C(F)F)c3=O)c(Cl)cc2s1 | 50%
C=CCSc1nc2cc(-n3nc(C)n(C(F)F)c3=O)c(Cl)cc2s1 | 60%
CCOC(=O)CSc1nc2cc(-n3nc(C)n(C(F)F)c3=O)c(Cl)cc2s1 | ≥ 90%
CSc1nc2cc(-n3nc(C)n(C(F)F)c3=O)c(Cl)cc2s1 | 60%
CCCSc1nc2cc(-n3nc(C)n(C(F)F)c3=O)c(Cl)cc2s1 | ≥ 90%
C=CCSc1nc2cc(-n3nc(C)n(C(F)F)c3=O)c(F)cc2s1 | < 50%
